PubChem BioAssay AID486 (Columbia University Molecular Screening Center, 2006)
Active and inactive are the calls of the source.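 The calls were made as follows: active = ranking score of 15 or more out of 100, based on fitted potency or summed per-dose inhibition deviations; inactive = the rest.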

These molecules were tested on exon1htt(103Q)-mCFP cells, aggregate imaging, high-content (assay: concentration-dependent loss of polyQ htt inclusions – imaging, exon1htt(103Q)-mCFP cells, high-content imaging, dose response (AID 486)).

| SMILES | IC50 |
| --- | --- |
| Cc1ccccc1NC1=NCCCS1 | > 8 µM (inactive) |
| COc1ccc(OC)c(C(=O)CSc2nnc(-c3ccc(OC)c(OC)c3)o2)c1 | > 8 µM (inactive) |
| COc1ccc(CCNC(=O)c2ccc(N3CCCC3=O)cc2)cc1OC | > 8 µM (inactive) |
| CCOC(=O)C1CCN(c2nc3ccccc3nc2C(C#N)C(=O)OC(C)C)CC1 (stereo not given) | > 8 µM (inactive) |
| CCOc1cc(C(=O)Nc2ncccn2)cc(OCC)c1OCC | > 8 µM (inactive) |
| Cn1c(-c2ccc(F)cc2)cnc1SCC(=O)Nc1ccccc1N1CCOCC1 | > 8 µM (inactive) |
| COc1ccc(Cc2nnc3n2N=C(c2cc4ccccc4o2)CS3)cc1OC | > 8 µM (inactive) |
| Cc1ccc(O)c(C(=O)c2cc(C#N)c(=O)n(CC3CCCO3)c2)c1 (stereo not given) | > 8 µM (inactive) |
| CCOC(=O)c1sc2ncn(/N=C/N(C)C)c(=O)c2c1C | > 8 µM (inactive) |
| CCOc1ccc(NS(=O)(=O)c2ccc(OCC(=O)N3CCCC3)cc2)cc1 | > 8 µM (inactive) |
| Nc1cc(-c2ccccc2)ccc1O | > 8 µM (inactive) |
| O=C(C1COc2ccccc2O1)N1CCCC1 (stereo not given) | > 8 µM (inactive) |
| O=C(NCc1ccco1)c1ccccc1Nc1ccc(F)cc1 | > 8 µM (inactive) |
| Nc1nonc1NC(=O)CSc1nc2ccccc2s1 | > 8 µM (inactive) |
| Cc1ccc(/C=c2\sc3nc(-c4ccccc4Br)nn3c2=O)o1 | > 8 µM (inactive) |
| CCOC(=O)N1CCN(C(=O)c2ccc3c(=O)n(Cc4ccc(OC)cc4)c(=S)[nH]c3c2)CC1 | > 8 µM (inactive) |
| COc1ccc(CCNC(=O)C2=COCCO2)cc1 | > 8 µM (inactive) |
| O=C(O)CCn1[nH]c(=O)ccc1=O | > 8 µM (inactive) |
| CCOC(=O)C1=C(C)NC(SC(C)=O)=NC1c1ccc(OC(C)=O)c(OC)c1 (stereo not given) | > 8 µM (inactive) |
| COc1ccc(NC(=O)CCc2nc(-c3ccccc3F)no2)cc1 | > 8 µM (inactive) |
| O=C(Nc1ccccc1)N(O)c1ccc(Cl)cc1 | > 8 µM (inactive) |
| Cn1cccc1Cc1nnc(SCC(=O)NCC2CCCO2)n1-c1ccc(F)cc1 (stereo not given) | > 8 µM (inactive) |
| O=C(c1ccc(=O)[nH]c1)N(Cc1ccco1)C1(C(=O)NC2CCCC2)CCCCC1 | > 8 µM (inactive) |

| SMILES | IC50 |
| --- | --- |
| CCOC(=O)c1sc(NC(=O)c2c(C)nn(Cc3ccccc3)c2C)cc1C | > 8 µM (inactive) |
| O=C1NC(=O)C(CC(=O)N(Cc2ccco2)C2(C(=O)NC3CCCC3)CCCCC2)N1 (stereo not given) | > 8 µM (inactive) |
| O=C(Nc1ncnc2sc3c(c12)CCCCC3)c1ccco1 | > 8 µM (inactive) |
| CC(C)(NC(=O)N1CCCC1)c1cccc(C(C)(C)NC(=O)N2CCCC2)c1 | > 8 µM (inactive) |
| CCn1ncc(C2=NOC(C(=O)NCc3ccccc3)C2)c1C (stereo not given) | > 8 µM (inactive) |
| Cc1ccccc1-n1c(=O)cc(NCc2ccc3c(c2)OCO3)[nH]c1=O | > 8 µM (inactive) |
| COc1ccc(N2CCC(CNS(=O)(=O)c3cccc(C(F)(F)F)c3)C2)cc1 (stereo not given) | > 8 µM (inactive) |
| CSc1ccccc1NC(=O)c1c(Br)cnn1C | > 8 µM (inactive) |
| COc1ccccc1-n1c(=O)c2c3c(sc2n2c(SC(C)C)nnc12)CCC3 | > 8 µM (inactive) |
| Cc1nc(NC2=NCN(CC3CCCO3)CN2)nc2ccccc12 (stereo not given) | > 8 µM (inactive) |
| C=C(C)CSc1nnc(-c2cccc(S(=O)(=O)N(C)C)c2)n1-c1cc(OC)ccc1OC | > 8 µM (inactive) |
| O=C(CSc1nnc(-c2ccco2)n1-c1ccccc1)N1CCN(C(=O)c2ccco2)CC1 | > 8 µM (inactive) |
| Cn1c(=O)oc2cc(S(=O)(=O)NC3CCN(Cc4ccccc4)CC3)ccc21 | > 8 µM (inactive) |
| COc1ccc(-c2nnc(SCC#N)o2)cc1 | > 8 µM (inactive) |
| CC1(C)CC(=O)C(C=NCCO)=C(O)C1 | > 8 µM (inactive) |
| Cn1c(=O)n(C)c2cc(NC(=O)C(F)(F)F)ccc21 | > 8 µM (inactive) |
| COc1ccc(S(=O)(=O)Cc2ccc(C(=O)NCCc3ccc(S(N)(=O)=O)cc3)o2)cc1 | > 8 µM (inactive) |
| COC(=O)c1oc2ccc(Br)cc2c1NC(C)=O | > 8 µM (inactive) |
| Cc1cc(C)c(C)c(S(=O)(=O)Nc2ccc(O)cc2)c1C | > 8 µM (inactive) |
| CC1(C)Cc2ccccc2C(N)=C1C#N | > 8 µM (inactive) |
| Cc1ccnc(NC(=O)C2CCCN(S(=O)(=O)c3cnc[nH]3)C2)c1 (stereo not given) | > 8 µM (inactive) |
| Cc1c(C(=O)NCc2cccnc2)oc2ccc(S(=O)(=O)N3CCCCC3)cc12 | > 8 µM (inactive) |
| COc1cccc(C2C(C(=O)c3ccc(C)o3)=C(O)C(=O)N2CCCN(C)C)c1 (stereo not given) | > 8 µM (inactive) |

| SMILES | IC50 |
| --- | --- |
| CN(C)c1ccc(O)c2c1CC1CC3[C@@H](N(C)C)C(=O)C(C(N)=O)=C(O)[C@]3(O)C(=O)C1=C2O (stereo not given in full) | < 0.1 µM |
| CCN(CC)c1ccc2cc(-c3nc4ccccc4[nH]3)c(=O)oc2c1 | > 8 µM (inactive) |
| CN(C)[C@@H]1C(=O)C(C(N)=O)=C(O)[C@@]2(O)C(=O)C3=C(O)c4c(O)cccc4[C@@](C)(O)[C@H]3C[C@@H]12 | 0.08 µM |
| COc1ccc(CCNC(=O)CSc2nnc(CNc3ccc(Cl)cc3)o2)cc1OC | > 8 µM (inactive) |
| Cc1ccccc1OCC(O)CN (stereo not given) | > 8 µM (inactive) |
| O=C1Nc2ccccc2OC1CC(=O)N1CCCC1 (stereo not given) | > 8 µM (inactive) |
| CN(C)[C@@H]1C(=O)C(C(N)=O)=C(O)[C@@]2(O)C(=O)C3=C(O)c4c(O)ccc(Cl)c4[C@@H](O)[C@H]3C[C@@H]12 | < 0.01 µM |
| CCOC(=O)c1cc2c(=O)n3ccccc3nc2n(CCCOC)c1=NC(=O)C(C)(C)C | > 8 µM (inactive) |
| C#CC1(O)CC(C)N(C)C(C)C1 (stereo not given) | > 8 µM (inactive) |
| COc1ccc(-c2nc(C#N)c(N3CCOCC3)o2)cc1OC | > 8 µM (inactive) |
| COC(=O)c1c(N)nc(C)n1-c1ccc(OC)cc1 | > 8 µM (inactive) |
| Cc1ncoc1C(=O)Nc1cccc(Cl)c1C | > 8 µM (inactive) |
| O=C(NC1CCCc2ccccc21)c1ccc(CNc2c(N3CCOCC3)c(=O)c2=O)cc1 (stereo not given) | > 8 µM (inactive) |
| CCOc1cc(C(=O)N2CCN(c3ccccc3)CC2)cc(OCC)c1OCC | > 8 µM (inactive) |
| Cc1cc(NC(=O)c2ccc(Cl)cc2)no1 | > 8 µM (inactive) |
| CN(C)[C@@H]1C(=O)C(C(N)=O)=C(O)[C@@]2(O)C(=O)C3=C(O)c4c(O)ccc(Cl)c4[C@@](C)(O)C3C[C@@H]12 (stereo not given in full) | < 0.01 µM |
| CCCCNC(=O)CSc1nc2ccc(N3CCOCC3)cc2c(=O)n1CCc1ccccc1 | > 8 µM (inactive) |
| COc1cccc(-c2nnc3sc(C4CCCCC4)nn23)c1 | > 4 µM (inactive) |
| CS(=O)(=O)N1CCN(c2ccccc2NC(=O)c2ccc(-c3ccc(Cl)cc3Cl)o2)CC1 | > 8 µM (inactive) |
| Cc1nnc(SC(=O)N2c3ccccc3Sc3ccccc32)s1 | > 8 µM (inactive) |
| O=c1oc2c3c4c(cc2cc1-c1nc2ccccc2[nH]1)CCCN4CCC3 | > 8 µM (inactive) |
| COc1ccc(CNc2nc3nc(C)cc(C)n3n2)cc1OC | > 8 µM (inactive) |
| CC(C)(C)NC(=O)CN(Cc1cccs1)C(=O)c1csnn1 | > 8 µM (inactive) |

| SMILES | IC50 |
| --- | --- |
| O=C(Nc1nccs1)c1ccc(Cl)c(S(=O)(=O)N2CCCCC2)c1 | > 8 µM (inactive) |
| CCn1cc(C(=O)NCCC2=CCCCC2)c(=O)c2cc(S(=O)(=O)N(C)C)ccc21 | > 8 µM (inactive) |
| CCCCc1nccn1CCn1ccnc1CCCC | > 8 µM (inactive) |
| OCCNC1=NCCN1 | > 8 µM (inactive) |
| CC(OC1=CC(=O)CCC1)C(=O)c1ccccc1 (stereo not given) | > 8 µM (inactive) |
| CC(C)(C)OC(=O)N1CC=C2C(C#N)=C(N)C(C#N)(C#N)[C@H](c3cccnc3)[C@H]2C1 | > 8 µM (inactive) |
| Cc1cc(N2CCN(C3CCCC3)CC2)n2c(nc3ccccc32)c1C#N | > 8 µM (inactive) |
| COCCCNC(=O)C(Cc1ccccc1)NS(=O)(=O)c1ccc2c(c1)c(=O)n(C)c(=O)n2C (stereo not given) | > 8 µM (inactive) |
| Cn1c(=O)c2c(nc(NCc3ccc4c(c3)OCO4)n2Cc2ccccc2F)n(C)c1=O | > 8 µM (inactive) |
| Cc1ccc(Nc2nc(N)nc(CN3CCN(Cc4ccc5c(c4)OCO5)CC3)n2)cc1 | > 8 µM (inactive) |
| O=C(Nc1cnn(Cc2ccc(Cl)cc2Cl)c1)c1noc2c1CCCC2 | > 8 µM (inactive) |
| CS(=O)(=O)N(CC(=O)NCCSCc1cccc(Cl)c1)c1ccc2c(c1)OCO2 | > 8 µM (inactive) |
| CCn1c(C(=O)N2CCCC(C(=O)NCCCc3ccccc3)C2)cc2sccc21 (stereo not given) | > 4 µM (inactive) |
| CN(C)[C@@H]1C(=O)C(C(N)=O)=C(O)[C@@]2(O)C(=O)C3=C(O)c4c(O)cccc4[C@@](C)(O)[C@H]3[C@H](O)[C@@H]12 | < 0.1 µM |
| CC(C)CCNC(=O)C(C)N(Cc1ccc(F)cc1)C(=O)c1ccc(CN2CCCCC2)o1 (stereo not given) | > 8 µM (inactive) |
| COc1cccc(/C=N/n2c(C)nc3ccccc32)c1OC | > 8 µM (inactive) |
| O=C(CSc1nnc(CNC(=O)c2c(F)cccc2Cl)o1)c1ccccc1 | > 8 µM (inactive) |
| CN(C)C(=O)N1CCC(C(=O)NC2CCCCCCC2)CC1 | > 8 µM (inactive) |
| Cc1cc(C)c(OCC(=O)Nc2cccc(O)c2)cc1C | > 8 µM (inactive) |
| O=C(CCN1CCN(c2ccc(F)cc2)CC1)Nc1ccccc1F | > 8 µM (inactive) |
| Cc1nc(C)n(C(C)CC(=O)O)n1 (stereo not given) | > 8 µM (inactive) |
